From patent US7405205B2, “Antitumor antisense sequences directed against R1 and R2 components of ribonucleotide reductase” (Lorus Therapeutics Inc., priority 1996, dated 2008) come the findings set out here.

Strand notation (5' to 3'): a small letter for the sugar, then the base; units joined by * are phosphorothioate-linked, units joined directly phosphodiester-linked; [ ] holds rarer units or linkages, { } end groups; capitals alone tell only the bases. d = 2'-deoxy (DNA)

For one data set, the system named is T24 bladder cell carcinoma. The data set is described as follows: Relative colony forming efficiency after antisense treatment (Table 13). Format: cell-based, human. Conditions: 0.2 μM antisense oligodeoxyribonucleotide phosphorothioate; T24 cells; averages of 2-8 determinations.
“TGGGACAGGGTGCACGGGCG (antisense dT*dG*dG*dG*dA*dC*dA*dG*dG*dG*dT*dG*dC*dA*dC*dG*dG*dG*dC*dG) [AS-II-130-20]”: the “Reduced relative colony forming efficiency, expressed as % inhibition, T24” value turned out to be 51.94%.

With “ATCCAGCGCAAGGCCCAGTC (antisense; DNA, all phosphorothioate, methylation of C not given here) [AS-II-816-20]”, the “Reduced relative colony forming efficiency, expressed as % inhibition, T24” value was found to be 73.91%.

Consider “GAAGCCATAGAAACAGCGGG (antisense; DNA, all phosphorothioate, methylation of C not given here) [AS-II-667-20]”, for which the “Reduced relative colony forming efficiency, expressed as % inhibition, T24” value is 70.48%.

“TTGTGTACCAGGTGTTTGAA (DNA, all phosphorothioate, methylation of C not given here) [AS-II-1023-20]”: the “Reduced relative colony forming efficiency, expressed as % inhibition, T24” value came out at 58.26%.

In the next data set the test system is HCT116 colon cell carcinoma. Described as above. Format: cell-based, human. Conditions: 0.2 μM antisense oligodeoxyribonucleotide phosphorothioate; HCT116 cells; averages of 2-8 determinations.
Turning to “TGGGACAGGGTGCACGGGCG (antisense dT*dG*dG*dG*dA*dC*dA*dG*dG*dG*dT*dG*dC*dA*dC*dG*dG*dG*dC*dG) [AS-II-130-20]”, the “Reduced relative colony forming efficiency, expressed as % inhibition, HCT116” value is on record as 57.98%.

With “ATCCAGCGCAAGGCCCAGTC (antisense; DNA, all phosphorothioate, methylation of C not given here) [AS-II-816-20]”, the “Reduced relative colony forming efficiency, expressed as % inhibition, HCT116” value is on record as 88.22%.

On to “GAAGCCATAGAAACAGCGGG (antisense; DNA, all phosphorothioate, methylation of C not given here) [AS-II-667-20]”, for which the “Reduced relative colony forming efficiency, expressed as % inhibition, HCT116” value was determined as 76.9%.

For the sequence “TCCTCGCGGTCTTGCTGGCC (dT*dC*dC*dT*dC*dG*dC*dG*dG*dT*dC*dT*dT*dG*dC*dT*dG*dG*dC*dC; antisense) [AS-II-323-20]”, the “Reduced relative colony forming efficiency, expressed as % inhibition, HCT116” value was 55.8%.

For the next data set, the system named is A549 lung cell carcinoma. The data set is described as above. Format: cell-based, human. To be noted: 0.2 μM antisense oligodeoxyribonucleotide phosphorothioate; A549 cells; averages of 2-8 determinations.
In the case of “TGGGACAGGGTGCACGGGCG (antisense dT*dG*dG*dG*dA*dC*dA*dG*dG*dG*dT*dG*dC*dA*dC*dG*dG*dG*dC*dG) [AS-II-130-20]”, the “Reduced relative colony forming efficiency, expressed as % inhibition, A549” value was determined as 86.48%.

Consider “ATCCAGCGCAAGGCCCAGTC (antisense; DNA, all phosphorothioate, methylation of C not given here) [AS-II-816-20]”, for which the “Reduced relative colony forming efficiency, expressed as % inhibition, A549” value came out at 78.4%.

Regarding “GAAGCCATAGAAACAGCGGG (antisense; DNA, all phosphorothioate, methylation of C not given here) [AS-II-667-20]”, the “Reduced relative colony forming efficiency, expressed as % inhibition, A549” value was 70.3%.

“TCCTCGCGGTCTTGCTGGCC (dT*dC*dC*dT*dC*dG*dC*dG*dG*dT*dC*dT*dT*dG*dC*dT*dG*dG*dC*dC; antisense) [AS-II-323-20]”: the “Reduced relative colony forming efficiency, expressed as % inhibition, A549” value worked out at 91.24%.

As for “TTGTGTACCAGGTGTTTGAA (DNA, all phosphorothioate, methylation of C not given here) [AS-II-1023-20]”, the “Reduced relative colony forming efficiency, expressed as % inhibition, A549” value came to 34.52%.

A further data set relates to MIA PaCa-2 pancreatic cell carcinoma. The description is as above. Format: cell-based, human. Conditions: 0.2 μM antisense oligodeoxyribonucleotide phosphorothioate; MIA PaCa-2 cells; averages of 2-8 determinations.
Regarding “CGGCTCATCCTCCACGC (dC*dG*dG*dC*dT*dC*dA*dT*dC*dC*dT*dC*dC*dA*dC*dG*dC) [AS-II-391-17]”, the “Reduced relative colony forming efficiency, expressed as % inhibition, MIA PaCa-2” value is listed as 26.35%.

For the sequence “TGGGACAGGGTGCACGGGCG (antisense dT*dG*dG*dG*dA*dC*dA*dG*dG*dG*dT*dG*dC*dA*dC*dG*dG*dG*dC*dG) [AS-II-130-20]”, the “Reduced relative colony forming efficiency, expressed as % inhibition, MIA PaCa-2” value came to 82.11%.

In the case of “ATCCAGCGCAAGGCCCAGTC (antisense; DNA, all phosphorothioate, methylation of C not given here) [AS-II-816-20]”, the “Reduced relative colony forming efficiency, expressed as % inhibition, MIA PaCa-2” value was found to be 93.21%.

With “GAAGCCATAGAAACAGCGGG (antisense; DNA, all phosphorothioate, methylation of C not given here) [AS-II-667-20]”, the “Reduced relative colony forming efficiency, expressed as % inhibition, MIA PaCa-2” value came out at 85.26%.

Turning to “TCCTCGCGGTCTTGCTGGCC (dT*dC*dC*dT*dC*dG*dC*dG*dG*dT*dC*dT*dT*dG*dC*dT*dG*dG*dC*dC; antisense) [AS-II-323-20]”, the “Reduced relative colony forming efficiency, expressed as % inhibition, MIA PaCa-2” value is 97.55%.

“TTGTGTACCAGGTGTTTGAA (DNA, all phosphorothioate, methylation of C not given here) [AS-II-1023-20]”: the “Reduced relative colony forming efficiency, expressed as % inhibition, MIA PaCa-2” value was found to be 42.82%.

A further data set deals with PC-3 prostrate cell adenocarcinoma. Described as above. Format: cell-based, human. To be noted: 0.2 μM antisense oligodeoxyribonucleotide phosphorothioate; PC-3 cells; averages of 2-8 determinations.
As for “GACGGCTGGGACAGGGTGCA (antisense dG*dA*dC*dG*dG*dC*dT*dG*dG*dG*dA*dC*dA*dG*dG*dG*dT*dG*dC*dA) [AS-II-134-20]”, the “Reduced relative colony forming efficiency, expressed as % inhibition, PC-3” value was determined as 77.51%.

“CGGCTCATCCTCCACGC (dC*dG*dG*dC*dT*dC*dA*dT*dC*dC*dT*dC*dC*dA*dC*dG*dC) [AS-II-391-17]”: the “Reduced relative colony forming efficiency, expressed as % inhibition, PC-3” value is listed as 93.25%.

As for “CCGTGGGCTCCTGGAAGATC (dC*dC*dG*dT*dG*dG*dG*dC*dT*dC*dC*dT*dG*dG*dA*dA*dG*dA*dT*dC; antisense) [AS-II-344-20]”, the “Reduced relative colony forming efficiency, expressed as % inhibition, PC-3” value came to 80.06%.

With “TGGGACAGGGTGCACGGGCG (antisense dT*dG*dG*dG*dA*dC*dA*dG*dG*dG*dT*dG*dC*dA*dC*dG*dG*dG*dC*dG) [AS-II-130-20]”, the “Reduced relative colony forming efficiency, expressed as % inhibition, PC-3” value is 74.66%.

For the sequence “ATCCAGCGCAAGGCCCAGTC (antisense; DNA, all phosphorothioate, methylation of C not given here) [AS-II-816-20]”, the “Reduced relative colony forming efficiency, expressed as % inhibition, PC-3” value is given as 94.08%.

Turning to “GAAGCCATAGAAACAGCGGG (antisense; DNA, all phosphorothioate, methylation of C not given here) [AS-II-667-20]”, the “Reduced relative colony forming efficiency, expressed as % inhibition, PC-3” value turned out to be 91.8%.

Turning to “TCCTCGCGGTCTTGCTGGCC (dT*dC*dC*dT*dC*dG*dC*dG*dG*dT*dC*dT*dT*dG*dC*dT*dG*dG*dC*dC; antisense) [AS-II-323-20]”, the “Reduced relative colony forming efficiency, expressed as % inhibition, PC-3” value is 79.76%.

As to “TTGTGTACCAGGTGTTTGAA (DNA, all phosphorothioate, methylation of C not given here) [AS-II-1023-20]”, the “Reduced relative colony forming efficiency, expressed as % inhibition, PC-3” value stood at 87.63%.

On to “CCAGCACTATAAACAGACAG (DNA, all phosphorothioate, methylation of C not given here) [AS-II-1517-20]”, for which the “Reduced relative colony forming efficiency, expressed as % inhibition, PC-3” value was 91.75%.

“GAAACCAAATAAATCAAGCT (DNA, all phosphorothioate, methylation of C not given here) [AS-II-1790-20]”: the “Reduced relative colony forming efficiency, expressed as % inhibition, PC-3” value is given as 87.86%.

For a further data set, the system named is HepG2 hepatocellular carcinoma. The data set is described as follows: Relative colony forming efficiency after antisense treatment (Table 13, FIG. 12). To be noted: 0.2 μM antisense oligodeoxyribonucleotide phosphorothioate; HepG2 cells; averages of 2-8 determinations. Format: cell-based, human.
On to “CGGCTCATCCTCCACGC (dC*dG*dG*dC*dT*dC*dA*dT*dC*dC*dT*dC*dC*dA*dC*dG*dC) [AS-II-391-17]”, for which the “Reduced relative colony forming efficiency, expressed as % inhibition, HepG2” value is recorded as 60.64%.

Regarding “TGGGACAGGGTGCACGGGCG (antisense dT*dG*dG*dG*dA*dC*dA*dG*dG*dG*dT*dG*dC*dA*dC*dG*dG*dG*dC*dG) [AS-II-130-20]”, the “Reduced relative colony forming efficiency, expressed as % inhibition, HepG2” value was 94.28%.

With “ATCCAGCGCAAGGCCCAGTC (antisense; DNA, all phosphorothioate, methylation of C not given here) [AS-II-816-20]”, the “Reduced relative colony forming efficiency, expressed as % inhibition, HepG2” value turned out to be 93.08%.

On to “GAAGCCATAGAAACAGCGGG (antisense; DNA, all phosphorothioate, methylation of C not given here) [AS-II-667-20]”, for which the “Reduced relative colony forming efficiency, expressed as % inhibition, HepG2” value worked out at 88.23%.

Consider “TCCTCGCGGTCTTGCTGGCC (dT*dC*dC*dT*dC*dG*dC*dG*dG*dT*dC*dT*dT*dG*dC*dT*dG*dG*dC*dC; antisense) [AS-II-323-20]”, for which the “Reduced relative colony forming efficiency, expressed as % inhibition, HepG2” value was found to be 96.39%.
